3 compounds from ChEMBL document CHEMBL1140045, “Crystal structures of rat vitamin D receptor bound to adamantyl vitamin D analogs: structural basis for vitamin D receptor antagonism and partial agonism” (J Med Chem, 2008) can be followed below.

Test [1] concerns the target T1, Vitamin D3 receptor (Homo sapiens) (UniProt P11473).
T1 sequence (whole entry): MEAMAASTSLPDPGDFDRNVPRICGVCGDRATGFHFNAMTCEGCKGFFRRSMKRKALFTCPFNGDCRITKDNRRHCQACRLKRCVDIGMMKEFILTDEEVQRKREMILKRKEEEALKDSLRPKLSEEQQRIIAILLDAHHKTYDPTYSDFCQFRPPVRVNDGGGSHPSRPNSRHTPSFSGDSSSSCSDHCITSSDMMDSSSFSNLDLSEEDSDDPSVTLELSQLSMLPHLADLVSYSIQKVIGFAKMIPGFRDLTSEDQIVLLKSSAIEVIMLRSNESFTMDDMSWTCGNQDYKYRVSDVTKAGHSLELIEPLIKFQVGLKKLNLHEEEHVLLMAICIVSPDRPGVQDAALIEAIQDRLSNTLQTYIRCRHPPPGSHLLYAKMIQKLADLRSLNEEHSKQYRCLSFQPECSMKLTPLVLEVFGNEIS
Description: Binding affinity to VDR relative to 1,25-Dihydroxyvitamin D3.

Test [2] concerns the target T2, Vitamin D3 receptor (Homo sapiens, UniProt P11473).
T2 sequence (P11473 whole entry): T1 sequence (whole entry)
Description: Agonist activity at VDR assessed as receptor transactivation by transient transcription assay. It counts as functional.

In test [3] the target is T1, Vitamin D3 receptor (Homo sapiens). The experiment in a line: Agonist activity at VDR assessed as receptor transactivation by transient transcription assay relative to 1,25-Dihydroxyvitamin D3. It counts as functional.
The target in test [4] is T2, Vitamin D3 receptor. The experiment in a line: Antagonist activity at VDR expressed in COS7 cells assessed as inhibition of 1,25-Dihydroxyvitamin D3-induced response by transient transcription assay. In kind it is functional, cell-based, COS-7.

The source made the active and inactive calls. The calls are words filed in the database; no cut-off is given here.

A word on the EC50: it is the concentration needed to bring the measured effect to its halfway point. As a reminder, the IC50 is the concentration at which inhibition is half-maximal. Consider `C=C1[C@H](O)CC(=C/C=C2\CCC[C@]3(C)[C@@H]([C@@H](C)/C=C/C[C@@H](O)C45CC6CC(CC(C6)C4)C5)CC[C@@H]23)C[C@H]1O`, for which the Activity in test [1] amounted to 75%; in test [3], 15%. In addition, the EC50 at Vitamin D3 receptor [2] worked out at 1 nM. Further, at Vitamin D3 receptor [4], the 50% inhibitory concentration (IC50) worked out at 3 nM.
Take `C=C1[C@H](O)CC(=C/C=C2\CCC[C@]3(C)[C@@H]([C@@H](C)/C=C/C[C@@H](O)CC45CC6CC(CC(C6)C4)C5)CC[C@@H]23)C[C@H]1O`: the outcome in test [1] was Active. For the same compound, at Vitamin D3 receptor [2], the EC50 stood at 24 nM. In addition, the Activity in test [3] was 10%.
Taken in the same sequence, the figures for `C=C1[C@H](O)CC(=C/C=C2\CCC[C@]3(C)[C@@H]([C@H](C)/C=C/[C@@H](O)C45CC6CC(CC(C6)C4)C5)CC[C@@H]23)C[C@H]1O` were 20%, 0.02 nM and 74%.
